Drawing on ChEMBL document CHEMBL5649166, “RIP3 induces apoptosis independent of pronecrotic kinase activity” (Mol Cell, 2014), this text covers residual activity and Activity for 3 compounds.

Series [1] has as its target Serine/threonine-protein kinase Nek4 (Homo sapiens) (UniProt P51957). Description: Inhibition of human NEK4 using myelin basic protein as substrate at 1 uM in presence of 32P-ATP by Hotspot assay relative to control; values are per cent of control.
The target in series [2] is CDK6/cyclin D3 (Homo sapiens) (UniProt P30281+Q00534). Description: Inhibition of human CDK6/cyclin D3 using RB Protein as substrate at 1 uM in presence of 32P-ATP by Hotspot assay relative to control; values are per cent of control.
Series [3] deals with Glycogen synthase kinase-3 beta (Homo sapiens) (UniProt P49841). Put plainly: Inhibition of human GSK3b using YRRAAVPPSPSLSRHSSPHQ(pS)EDEEE as substrate at 1 uM in presence of 32P-ATP by Hotspot assay relative to control; values are per cent of control.
Series [4] deals with Cyclin-dependent kinase 5/CDK5 activator 1 (Homo sapiens) (UniProt Q00535+Q15078). Description: Inhibition of human CDK5/p25 using RB Protein as substrate at 1 uM in presence of 32P-ATP by Hotspot assay relative to control; values are per cent of control.
Series [5] has as its target T1, Lymphokine-activated killer T-cell-originated protein kinase (Homo sapiens) (UniProt Q96KB5).
T1 sequence (whole entry): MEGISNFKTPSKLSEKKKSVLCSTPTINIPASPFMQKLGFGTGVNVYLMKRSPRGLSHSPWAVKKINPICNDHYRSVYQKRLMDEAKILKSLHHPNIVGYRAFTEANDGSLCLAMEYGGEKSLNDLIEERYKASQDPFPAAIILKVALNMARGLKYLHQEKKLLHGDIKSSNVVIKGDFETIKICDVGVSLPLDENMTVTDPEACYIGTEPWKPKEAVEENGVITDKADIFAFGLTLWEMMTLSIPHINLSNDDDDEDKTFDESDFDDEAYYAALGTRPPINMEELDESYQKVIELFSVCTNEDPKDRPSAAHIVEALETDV
Description: Inhibition of human PBK/TOPK using myelin basic protein as substrate at 1 uM in presence of 32P-ATP by Hotspot assay relative to control; values are per cent of control.

Series [6] has as its target T2, Testis-specific serine/threonine-protein kinase 1 (Homo sapiens) (UniProt Q9BXA7).
T2 sequence (whole entry): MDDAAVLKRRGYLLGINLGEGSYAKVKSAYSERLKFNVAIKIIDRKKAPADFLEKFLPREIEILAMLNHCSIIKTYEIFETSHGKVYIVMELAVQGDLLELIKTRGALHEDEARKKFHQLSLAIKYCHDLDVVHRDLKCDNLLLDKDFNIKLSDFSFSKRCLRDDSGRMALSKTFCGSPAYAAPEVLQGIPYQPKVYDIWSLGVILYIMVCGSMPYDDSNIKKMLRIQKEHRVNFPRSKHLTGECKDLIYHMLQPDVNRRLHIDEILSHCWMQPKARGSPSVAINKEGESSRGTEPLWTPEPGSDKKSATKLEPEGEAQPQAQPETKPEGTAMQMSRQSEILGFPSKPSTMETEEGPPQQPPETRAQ
Put plainly: Residual activity of human STK22D/TSSK1 using KKKVSRSGLYRSPSMPENLNRPR as substrate at 1 uM in presence of 32P-ATP by Hotspot assay relative to control.

The target of series [7] is T3, Inhibitor of nuclear factor kappa-B kinase subunit beta (Homo sapiens) (UniProt O14920).
T3 sequence (whole entry): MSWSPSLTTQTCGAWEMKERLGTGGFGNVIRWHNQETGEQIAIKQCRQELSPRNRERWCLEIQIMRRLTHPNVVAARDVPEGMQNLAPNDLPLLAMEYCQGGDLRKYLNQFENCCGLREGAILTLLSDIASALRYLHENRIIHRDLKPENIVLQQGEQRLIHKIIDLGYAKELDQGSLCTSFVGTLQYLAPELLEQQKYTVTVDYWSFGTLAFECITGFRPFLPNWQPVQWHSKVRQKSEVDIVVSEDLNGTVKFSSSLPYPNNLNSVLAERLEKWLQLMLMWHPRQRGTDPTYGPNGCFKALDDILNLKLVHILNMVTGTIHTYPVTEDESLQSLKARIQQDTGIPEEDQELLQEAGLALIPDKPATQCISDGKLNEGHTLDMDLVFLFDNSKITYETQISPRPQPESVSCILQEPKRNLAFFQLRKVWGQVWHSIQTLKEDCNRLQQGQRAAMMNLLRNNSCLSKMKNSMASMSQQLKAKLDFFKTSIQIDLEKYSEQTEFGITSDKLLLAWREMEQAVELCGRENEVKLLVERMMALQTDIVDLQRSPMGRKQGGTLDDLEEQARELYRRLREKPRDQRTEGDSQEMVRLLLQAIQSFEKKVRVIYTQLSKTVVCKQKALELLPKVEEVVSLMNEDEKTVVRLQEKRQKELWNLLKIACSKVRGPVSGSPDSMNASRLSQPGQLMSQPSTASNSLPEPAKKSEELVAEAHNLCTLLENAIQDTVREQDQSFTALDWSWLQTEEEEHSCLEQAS
Put plainly: Inhibition of human IKKb/IKBKB using KKKKERLLDDRHDSGLDSMKDEE as substrate at 1 uM in presence of 32P-ATP by Hotspot assay relative to control; values are per cent of control.

Series [8] deals with Casein kinase I isoform gamma-1 (Homo sapiens) (UniProt Q9HCP0). Description: Inhibition of human CK1g1 using KRRRAL[pS]VASLPGL as substrate at 1 uM in presence of 32P-ATP by Hotspot assay relative to control; values are per cent of control.
For series [9], the target named is Tyrosine-protein kinase Yes (Homo sapiens) (UniProt P07947). Put plainly: Inhibition of human YES/YES1 using poly[Glu:Tyr] (4:1) as substrate at 1 uM in presence of 32P-ATP by Hotspot assay relative to control; values are per cent of control.
In another series the test system is MEF. Put plainly: Induction of apoptosis in RIP3-/- MEF cells transfected with human RIP3 incubated for 18 hrs by Cell Titer-Glo luminescent cell viability assay. Format: toxicity, cell-based. The settings on record: mouse. (ATP-based viability assays read luminescence as a measure of living cells.)
Series [10] concerns the target Hepatocyte growth factor receptor (Homo sapiens) (UniProt P08581). Put plainly: Inhibition of human c-MET using poly[Glu:Tyr] (4:1) as substrate at 1 uM in presence of 32P-ATP by Hotspot assay relative to control; values are per cent of control.

Chain of Casein kinase I isoform gamma-1 (Homo sapiens) (Q9HCP0 whole entry, looked up, canonical isoform): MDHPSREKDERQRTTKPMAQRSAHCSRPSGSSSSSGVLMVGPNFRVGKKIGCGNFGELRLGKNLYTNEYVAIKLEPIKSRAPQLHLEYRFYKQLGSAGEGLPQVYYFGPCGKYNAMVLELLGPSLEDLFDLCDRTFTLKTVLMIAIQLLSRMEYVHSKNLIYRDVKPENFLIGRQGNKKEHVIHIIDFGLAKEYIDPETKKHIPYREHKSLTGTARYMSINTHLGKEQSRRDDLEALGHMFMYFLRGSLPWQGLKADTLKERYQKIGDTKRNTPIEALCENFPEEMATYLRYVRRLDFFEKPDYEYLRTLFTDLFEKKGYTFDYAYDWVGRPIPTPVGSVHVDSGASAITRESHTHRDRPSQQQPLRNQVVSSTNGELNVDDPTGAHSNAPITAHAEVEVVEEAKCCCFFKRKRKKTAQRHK
Chain of Serine/threonine-protein kinase Nek4 (Homo sapiens) (P51957 whole entry, looked up): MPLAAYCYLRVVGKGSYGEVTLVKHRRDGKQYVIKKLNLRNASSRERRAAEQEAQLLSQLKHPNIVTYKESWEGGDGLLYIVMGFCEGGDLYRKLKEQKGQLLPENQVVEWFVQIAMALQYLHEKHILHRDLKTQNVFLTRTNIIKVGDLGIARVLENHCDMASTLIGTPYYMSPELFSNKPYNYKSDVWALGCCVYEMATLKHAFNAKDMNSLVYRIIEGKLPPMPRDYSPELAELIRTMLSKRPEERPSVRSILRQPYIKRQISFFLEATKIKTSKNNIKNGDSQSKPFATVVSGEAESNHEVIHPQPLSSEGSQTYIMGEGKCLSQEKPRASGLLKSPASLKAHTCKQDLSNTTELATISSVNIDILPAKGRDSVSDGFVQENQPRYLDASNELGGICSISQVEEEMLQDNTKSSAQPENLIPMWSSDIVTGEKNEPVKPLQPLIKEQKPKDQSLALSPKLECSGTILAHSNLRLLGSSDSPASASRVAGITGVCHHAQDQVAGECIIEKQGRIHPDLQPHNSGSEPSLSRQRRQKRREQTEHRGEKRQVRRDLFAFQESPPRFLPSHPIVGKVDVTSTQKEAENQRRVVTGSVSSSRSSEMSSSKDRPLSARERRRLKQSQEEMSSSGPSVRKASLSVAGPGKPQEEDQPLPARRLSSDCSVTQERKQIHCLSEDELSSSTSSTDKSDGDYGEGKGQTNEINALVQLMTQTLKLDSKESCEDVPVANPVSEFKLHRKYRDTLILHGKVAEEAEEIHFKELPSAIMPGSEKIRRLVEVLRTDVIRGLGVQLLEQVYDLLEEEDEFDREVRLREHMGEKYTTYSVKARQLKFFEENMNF
Chain of Hepatocyte growth factor receptor (Homo sapiens) (P08581 whole entry): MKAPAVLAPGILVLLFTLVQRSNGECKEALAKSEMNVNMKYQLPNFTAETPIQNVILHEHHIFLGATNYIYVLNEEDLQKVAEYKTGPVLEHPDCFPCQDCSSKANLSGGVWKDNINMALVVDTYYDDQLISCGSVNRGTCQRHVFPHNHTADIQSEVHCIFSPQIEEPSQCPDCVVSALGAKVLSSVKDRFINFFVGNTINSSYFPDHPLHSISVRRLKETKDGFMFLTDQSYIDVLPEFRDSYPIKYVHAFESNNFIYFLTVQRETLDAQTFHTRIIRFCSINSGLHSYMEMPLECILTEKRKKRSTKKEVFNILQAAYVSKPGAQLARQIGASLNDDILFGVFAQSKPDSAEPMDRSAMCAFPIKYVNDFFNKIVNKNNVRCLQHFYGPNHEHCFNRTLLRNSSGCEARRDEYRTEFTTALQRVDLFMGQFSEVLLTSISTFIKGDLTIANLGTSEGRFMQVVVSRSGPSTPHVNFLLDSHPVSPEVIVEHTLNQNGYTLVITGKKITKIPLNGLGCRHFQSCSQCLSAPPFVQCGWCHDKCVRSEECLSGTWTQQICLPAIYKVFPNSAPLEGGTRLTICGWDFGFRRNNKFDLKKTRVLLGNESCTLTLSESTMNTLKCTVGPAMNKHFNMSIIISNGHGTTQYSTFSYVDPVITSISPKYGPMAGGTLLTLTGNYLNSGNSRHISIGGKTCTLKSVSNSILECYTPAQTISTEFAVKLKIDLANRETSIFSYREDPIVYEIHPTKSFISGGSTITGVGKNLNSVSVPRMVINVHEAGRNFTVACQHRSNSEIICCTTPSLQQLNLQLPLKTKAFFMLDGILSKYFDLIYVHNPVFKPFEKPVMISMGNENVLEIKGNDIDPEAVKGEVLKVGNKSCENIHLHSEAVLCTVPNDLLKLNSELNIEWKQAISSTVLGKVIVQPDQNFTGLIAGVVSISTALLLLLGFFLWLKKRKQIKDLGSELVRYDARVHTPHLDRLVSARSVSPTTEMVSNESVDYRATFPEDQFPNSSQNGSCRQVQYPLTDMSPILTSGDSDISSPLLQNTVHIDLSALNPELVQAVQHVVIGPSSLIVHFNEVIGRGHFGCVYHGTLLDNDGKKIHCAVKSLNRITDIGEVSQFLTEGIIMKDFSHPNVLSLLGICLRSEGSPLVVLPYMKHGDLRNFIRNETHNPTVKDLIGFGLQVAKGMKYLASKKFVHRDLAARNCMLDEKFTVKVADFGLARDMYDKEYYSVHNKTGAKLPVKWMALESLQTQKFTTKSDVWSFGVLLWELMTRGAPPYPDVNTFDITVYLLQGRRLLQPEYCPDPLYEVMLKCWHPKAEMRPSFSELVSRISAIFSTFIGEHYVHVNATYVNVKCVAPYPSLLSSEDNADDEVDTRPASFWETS
Chain of Cyclin-dependent kinase 5/CDK5 activator 1 (Homo sapiens) (Q00535 whole entry): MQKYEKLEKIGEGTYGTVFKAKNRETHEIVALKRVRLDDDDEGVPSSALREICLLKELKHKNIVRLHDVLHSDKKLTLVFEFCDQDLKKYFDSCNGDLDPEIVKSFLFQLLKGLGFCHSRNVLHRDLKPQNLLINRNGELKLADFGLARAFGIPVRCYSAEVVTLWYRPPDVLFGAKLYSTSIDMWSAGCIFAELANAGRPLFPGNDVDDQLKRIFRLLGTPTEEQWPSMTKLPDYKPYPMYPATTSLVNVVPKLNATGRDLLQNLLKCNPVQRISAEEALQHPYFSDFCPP
Chain of Cyclin-dependent kinase 5/CDK5 activator 1 (Homo sapiens) (Q15078 99-307 partner limits assumed): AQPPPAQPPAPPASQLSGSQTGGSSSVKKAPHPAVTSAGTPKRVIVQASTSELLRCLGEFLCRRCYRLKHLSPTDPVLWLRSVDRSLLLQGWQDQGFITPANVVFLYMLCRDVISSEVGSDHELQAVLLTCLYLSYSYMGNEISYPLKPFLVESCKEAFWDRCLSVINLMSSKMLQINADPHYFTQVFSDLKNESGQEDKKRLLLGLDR
Chain of Tyrosine-protein kinase Yes (Homo sapiens) (P07947 2-543 limits assumed): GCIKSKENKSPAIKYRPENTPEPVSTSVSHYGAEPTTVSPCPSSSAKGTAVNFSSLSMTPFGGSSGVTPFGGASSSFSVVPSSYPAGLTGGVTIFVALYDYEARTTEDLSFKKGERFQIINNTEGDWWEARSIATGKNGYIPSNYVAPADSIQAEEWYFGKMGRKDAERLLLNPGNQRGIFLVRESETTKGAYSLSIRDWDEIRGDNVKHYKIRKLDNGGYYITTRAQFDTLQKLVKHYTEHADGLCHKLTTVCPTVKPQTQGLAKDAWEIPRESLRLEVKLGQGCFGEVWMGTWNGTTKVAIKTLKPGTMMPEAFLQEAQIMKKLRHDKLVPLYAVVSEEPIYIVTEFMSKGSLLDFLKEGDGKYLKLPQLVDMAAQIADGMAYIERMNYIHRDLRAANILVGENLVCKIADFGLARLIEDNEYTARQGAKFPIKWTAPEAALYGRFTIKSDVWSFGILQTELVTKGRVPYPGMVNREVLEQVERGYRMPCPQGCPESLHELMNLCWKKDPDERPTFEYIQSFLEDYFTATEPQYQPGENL
Chain of Glycogen synthase kinase-3 beta (Homo sapiens) (P49841 whole entry, looked up): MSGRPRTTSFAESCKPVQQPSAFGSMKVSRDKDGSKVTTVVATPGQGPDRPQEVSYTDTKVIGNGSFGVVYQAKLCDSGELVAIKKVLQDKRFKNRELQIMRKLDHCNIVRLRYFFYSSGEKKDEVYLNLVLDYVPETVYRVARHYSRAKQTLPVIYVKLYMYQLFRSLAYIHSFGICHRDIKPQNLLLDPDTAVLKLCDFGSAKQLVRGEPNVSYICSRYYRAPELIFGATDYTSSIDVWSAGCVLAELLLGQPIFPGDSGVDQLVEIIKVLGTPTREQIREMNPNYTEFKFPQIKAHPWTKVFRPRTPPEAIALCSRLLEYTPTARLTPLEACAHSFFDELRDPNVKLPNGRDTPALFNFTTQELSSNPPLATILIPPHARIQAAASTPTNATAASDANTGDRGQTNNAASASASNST

Take `CC(C)S(=O)(=O)c1ccc2nccc(Nc3ccc4scnc4c3)c2c1`: the residual activity came out at 95.6% in series [1]; 88.3% in series [2]; 83.8% in series [3]; 99.9% in [4]; 105% in [5]; 98.6% in series [6]. In addition, the residual activity worked out at 93.3% in series [7], 103% in [8], 20.1% in series [9] and 86.2% in series [10]. In the series with MEF, the Activity result is given as “Toxic”.
With `CNC(=O)c1ccc2c(c1)ncn2-c1ccc(CC(=O)OC(C)(C)C)cc1`, the residual activity worked out at 96.3% in [1]; 51.5% in [2]; 65.2% in [3]; 93.1% in [4]; 102% in series [5]; 89.2% in series [6]. Moreover, the residual activity was 90.2% in series [7], 97.1% in series [8], 39.6% in series [9] and 92.4% in [10]. Moreover, in the series with MEF, the Activity entry is “Toxic”.
In the case of `Cc1cc(-c2cnc(N)c3c(-c4ccc5scnc5c4)csc23)n(C)n1`, the residual activity in [1] amounted to 97.9%; in series [2], 89.6%; in [3], 93.2%; in series [4], 96.7%; in [5], 100%; in series [6], 101%. Besides, the residual activity in series [7] was 104%; in series [8] it was 94.2%; in series [9] it was 17%; in [10], 76.8%. Moreover, in the series with MEF, the Activity entry was “Toxic”.
